Laboratory results: patent publication US9770026B2, “Substituted pyrimidine compound and uses thereof” (Shenyang Sinochem Agrochemicals R&D Co., Ltd., priority 2012, dated 2017)

Assays:
[1] = tested on: cucumber downy mildew; assay: protectant activity in vivo against cucumber downy mildew; settings: Cucumis sativus, 168 h; for pest or weed control at 6.25 µg/mL: read-out: control effect against cucumber downy mildew (%), 6.25 mg/L; for pest or weed control at 12.5 µg/mL: read-out: control effect against cucumber downy mildew (%), 12.5 mg/L; for pest or weed control at 25 µg/mL: read-out: control effect against cucumber downy mildew (%), 25 mg/L; for pest or weed control at 50 µg/mL: read-out: control effect against cucumber downy mildew (%), 50 mg/L; for pest or weed control at 100 µg/mL: read-out: control effect against cucumber downy mildew (%), 100 mg/L; for pest or weed control at 400 µg/mL: read-out: control effect against cucumber downy mildew (%), 400 mg/L
[2] = tested on: Diamond back moth; assay: insecticidal activity against diamond back moth, airbrush spray; format: in vivo; settings: 72 h; for pest or weed control at 600 µg/mL: 600 mg/L
Outline: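 Airbrush leaf-disc spray test: both faces of 2 cm cabbage discs received 0.5 ml of test solution at 0.7 kg/cm^2. Solutions were made in acetone:methanol (1:1) and brought to concentration with 0.1% Tween 80 in water. Ten second-instar larvae per disc, triplicates, were held at 25° C and 60˜70% R.H., with mortality recorded at 72 hrs.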

[3] = tested on: corn rust; assay: protectant activity in vivo against corn rust; settings: Zea mays, 168 h; for pest or weed control at 25 µg/mL: read-out: control effect against corn rust (%), 25 mg/L; for pest or weed control at 100 µg/mL: read-out: control effect against corn rust (%), 100 mg/L; for pest or weed control at 400 µg/mL: read-out: control effect against corn rust (%), 400 mg/L
[4] = tested on: armyworm; assay: bioactivity test against armyworm, airbrush spray; format: in vivo; settings: 72 h; for pest or weed control at 600 µg/mL: 600 mg/L, read-out: Insecticidal activity against armyworm (%)
[5] = tested on: rice blast; assay: microbe, parasite or virus in culture; format: cell-based; settings: Pyricularia oryzae; for inhibition at 8.3 ppm: read-out: inhibition rate against rice blast, 8.3 ppm, in vitro; for inhibition at 25 ppm: read-out: inhibition rate against rice blast, 25 ppm, in vitro
[6] = tested on: Green peach aphids (Myzus Persicae Sulzer); assay: bioactivity test against green peach aphid, airbrush foliar spray; format: in vivo; settings: Myzus persicae, foliar, 48 h; for pest or weed control at 10 µg/mL: 10 mg/L; for pest or weed control at 100 µg/mL: 100 mg/L; for pest or weed control at 600 µg/mL: 600 mg/L
Outline: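 Death rate was scored at 48 hrs, held at 25±1 C and 60±5% RH, following airbrush foliar spray (0.5 mL, 10 psi) onto cabbage leaf discs bearing about 15-30 aphids. Test solutions: compound dissolved in 1:1 acetone:methanol, brought to concentration with 0.1% tween 80 water.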

[7] = tested on: cucumber gray mold; assay: fungicidal activity in vitro (inhibition rate) against cucumber gray mold; format: cell-based; settings: 25 ppm, in vitro; read-out: inhibition rate against cucumber gray mold
[8] = tested on: carmine spider mite; assay: bioactivity test against carmine spider mite, airbrush spray; format: in vivo; settings: Tetranychus cinnabarinus, 72 h; for pest or weed control at 100 µg/mL: 100 mg/L; for pest or weed control at 600 µg/mL: 600 mg/L
Outline: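 Broadbean seedlings infested with adult mites were sprayed with compound (acetone/methanol stock diluted in 0.1% Tween 80 water) by airbrush at 0.7 kg/cm^2, 0.5 ml. Three replicates were run. Mortality was scored after 72 hrs.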

[9] = tested on: wheat powdery mildew; assay: protectant activity in vivo against wheat powdery mildew; settings: Triticum aestivum, 168 h; for pest or weed control at 400 µg/mL: read-out: control effect against wheat powdery mildew (%), 400 mg/L
[10] = contrastive test, read-out: Insecticidal activity against peach aphid (%)
[11] = contrastive test, read-out: Insecticidal activity against carmine spider mite (% )

Compound: Cc1ncnc(NCCc2ccc(Oc3ccc(Cl)cc3)nc2)c1Cl [III-7]
- pest or weed control at 3.125 µg/mL ([1]; read-out: control effect against cucumber downy mildew (%), 3.125 mg/L, protectant activity): 100%
- pest or weed control at 6.25 µg/mL ([1]; protectant activity): 100%
- pest or weed control at 12.5 µg/mL ([1]; protectant activity): 100%
- pest or weed control at 25 µg/mL ([1]; protectant activity): 100%
- pest or weed control at 50 µg/mL ([1]; protectant activity): 100%
- pest or weed control at 100 µg/mL ([1]; protectant activity): 100%
- pest or weed control at 400 µg/mL ([1]; protectant activity): 100%
- pest or weed control at 6.25 ppm ([1]; read-out: protectant activity against cucumber downy mildew in vivo, 6.25 ppm): 100%
- pest or weed control at 12.5 ppm ([1]; read-out: protectant activity against cucumber downy mildew in vivo, 12.5 ppm): 100%
- pest or weed control at 25 ppm ([1]; read-out: protectant activity against cucumber downy mildew in vivo, 25 ppm): 100%
- pest or weed control at 50 ppm ([1]; read-out: protectant activity against cucumber downy mildew in vivo, 50 ppm): 100%
- pest or weed control at 100 ppm ([1]; read-out: protectant activity against cucumber downy mildew in vivo, 100 ppm): 100%
- pest or weed control at 400 ppm ([1]; read-out: protectant activity against cucumber downy mildew in vivo, 400 ppm): 100%
- pest or weed control at 100 ppm ([2]; 100 ppm, mortality after 72 hrs, read-out: control (test results against diamond back moth)): 80 to 99%
- pest or weed control at 600 ppm ([2]; 600 ppm, mortality after 72 hrs, read-out: control (test results against diamond back moth)): 100%
- pest or weed control at 25 µg/mL ([3]; protectant activity): 100%
- pest or weed control at 100 µg/mL ([3]; protectant activity): 100%
- pest or weed control at 400 µg/mL ([3]; protectant activity): 100%
- pest or weed control at 25 ppm ([3]; read-out: protectant activity against corn rust in vivo, 25 ppm): 100%
- pest or weed control at 100 ppm ([3]; read-out: protectant activity against corn rust in vivo, 100 ppm): 100%
- pest or weed control at 400 ppm ([3]; read-out: protectant activity against corn rust in vivo, 400 ppm): 100%
- pest or weed control at 600 ppm ([4]; 600 ppm, mortality after 72 h): 100%
- inhibition at 0.1 ppm ([5]; read-out: inhibition rate against rice blast, 0.1 ppm, in vitro): 100%
- inhibition at 0.3 ppm ([5]; read-out: inhibition rate against rice blast, 0.3 ppm, in vitro): 100%
- inhibition at 0.9 ppm ([5]; read-out: inhibition rate against rice blast, 0.9 ppm, in vitro): 100%
- inhibition at 2.8 ppm ([5]; read-out: inhibition rate against rice blast, 2.8 ppm, in vitro): 100%
- inhibition at 8.3 ppm [5]: 100%
- inhibition at 25 ppm [5]: 100%
- pest or weed control at 5 µg/mL ([6]; 5 mg/L, contrastive test, read-out: Insecticidal activity against peach aphid (%)): 88%
- pest or weed control at 10 µg/mL [6, 10]: 90%
- pest or weed control at 100 µg/mL [6, 10]: 100%
- pest or weed control at 600 µg/mL [6, 10]: 100%
- pest or weed control at 10 ppm ([6]; 10 ppm, death rate after 48 hrs): 80 to 99%
- pest or weed control at 100 ppm ([6]; 100 ppm, death rate after 48 hrs): 100%
- pest or weed control at 600 ppm ([6]; 600 ppm, death rate after 48 hrs): 100%
- inhibition at 25 ppm [7]: 80 to 99%
- pest or weed control at 100 µg/mL [8, 11]: 100%
- pest or weed control at 600 µg/mL [8, 11]: 100%
- pest or weed control at 100 ppm ([8]; 100 ppm, mortality after 72 hrs): 100%
- pest or weed control at 600 ppm ([8]; 600 ppm, mortality after 72 hrs): 100%
- pest or weed control at 100 ppm ([9]; read-out: protectant activity against wheat powdery mildew in vivo, 100 ppm): 80 to 99%
- pest or weed control at 400 ppm ([9]; read-out: protectant activity against wheat powdery mildew in vivo, 400 ppm): 100%

Compound: CCC(Nc1ncnc(C)c1Cl)c1ccc(OC(F)F)cc1 (centres unmarked) [diflumetorim, reference compound]
- pest or weed control at 6.25 µg/mL ([1]; protectant activity): 0%
- pest or weed control at 12.5 µg/mL ([1]; protectant activity): 15%
- pest or weed control at 25 µg/mL ([1]; protectant activity): 70%
- pest or weed control at 50 µg/mL ([1]; protectant activity): 100%
- pest or weed control at 100 µg/mL ([1]; protectant activity): 100%
- pest or weed control at 400 µg/mL ([1]; protectant activity): 100%
- pest or weed control at 600 µg/mL [2]: 0%
- pest or weed control at 6.25 µg/mL ([3]; read-out: control effect against corn rust (%), 6.25 mg/L, protectant activity): 0%
- pest or weed control at 25 µg/mL ([3]; protectant activity): 10%
- pest or weed control at 100 µg/mL ([3]; protectant activity): 80%
- pest or weed control at 400 µg/mL ([3]; protectant activity): 100%
- pest or weed control at 600 µg/mL [4]: 0%
- inhibition at 8.3 ppm [5]: 0%
- pest or weed control at 10 µg/mL [6, 10]: 0%
- pest or weed control at 100 µg/mL [6, 10]: 35%
- pest or weed control at 600 µg/mL [6, 10]: 100%
- inhibition at 25 ppm [7]: 0%
- pest or weed control at 10 µg/mL ([8]; 10 mg/L, contrastive test, read-out: Insecticidal activity against carmine spider mite (% )): 73%
- pest or weed control at 100 µg/mL [8, 11]: 100%
- pest or weed control at 600 µg/mL [8, 11]: 100%
- pest or weed control at 6.25 µg/mL ([9]; read-out: control effect against wheat powdery mildew (%), 6.25 mg/L, protectant activity): 90%
- pest or weed control at 25 µg/mL ([9]; read-out: control effect against wheat powdery mildew (%), 25 mg/L, protectant activity): 95%
- pest or weed control at 100 µg/mL ([9]; read-out: control effect against wheat powdery mildew (%), 100 mg/L, protectant activity): 95%
- pest or weed control at 400 µg/mL ([9]; protectant activity): 100%

Compound: Cc1ncnc(NC(=O)Cc2ccc(Oc3ccc(C(F)(F)F)cc3)cc2)c1Cl [CK61, reference compound]
- pest or weed control at 25 µg/mL ([1]; protectant activity): 30%
- pest or weed control at 50 µg/mL ([1]; protectant activity): 85%
- pest or weed control at 100 µg/mL ([1]; protectant activity): 90%
- pest or weed control at 400 µg/mL ([1]; protectant activity): 100%
- pest or weed control at 600 µg/mL [2]: 0%
- pest or weed control at 400 µg/mL ([3]; protectant activity): 0%
- pest or weed control at 600 µg/mL [4]: 0%
- inhibition at 25 ppm [5]: 0%
- pest or weed control at 10 µg/mL [6, 10]: 0%
- pest or weed control at 100 µg/mL [6, 10]: 0%
- pest or weed control at 600 µg/mL [6, 10]: 88%
- inhibition at 25 ppm [7]: 0%
- pest or weed control at 600 µg/mL [8, 11]: 0%
- pest or weed control at 400 µg/mL ([9]; protectant activity): 70%
